Measured values from US20140228543A1, “MODIFIED AND DERIVATIZED ß-GLUCAN COMPOUNDS, COMPOSITIONS, AND METHODS” (Biothera, Inc., priority 2011, published 2014).

How the values were obtained:
Format in all cases: cell-based
human neutrophils [1] = assay: iC3b deposition on neutrophils (flow cytometry); conditions: 200 μg/mL hexose concentration, 2 hr, 37° C., 10% serum
Procedure: This ability was evaluated by comparing the levels of iC3b complement fragment detected on human neutrophils with the derivative versus parent β-glucan-bound.
Enriched neutrophils were resuspended at 1×10^6 cells/mL in RPMI 1640 supplemented with 10% serum. The parent or the derivatized glucans at 200, μg/mL hexose concentration were added to neutrophils and incubated in a 37° C., 5% C02 humidified incubator for 2 hr. After incubation, cells were washed twice with FACS buffer (HBSS supplemented with 1% FBS and 0.1% sodium azide) to remove any unbound β-glucan, stained with a neo-epitope specific anti-iC3b Ab and PE-conjugated goat anti-mouse IgG and subsequently analyzed by flow cytometry.
Table 1 below lists the fold change of mean fluorescence intensity (MFI) values of iC3b staining on neutrophils treated with each of the parent or derivatized glucans over that of PBS control-treated cells.

human neutrophils [2] = assay: β-glucan binding on neutrophils (BfD IV staining, flow cytometry); conditions: 200 μg/mL hexose concentration, 2 hr, 37° C., 10% serum
Procedure: This ability was evaluated by comparing the levels of neutrophil-bound parent versus the derivatives of β-glucans detected by BfD IV, a monoclonal antibody (MAb) specific for β-1,3/1,6 glucans. […] Table 2 lists the fold change of MFI values of BfD IV staining on neutrophils treated with each of the parent and derivatized glucans over that of PBS control-treated cells.
Enriched neutrophils were resuspended at 1×10^6 cells/mL in RPMI 1640 supplemented with 10% serum. The parent or the derivatized glucans at 200, μg/mL hexose concentration were added to neutrophils and incubated in a 37° C., 5% CO2 humidified incubator for 2 hr. After incubation, cells were washed twice with FACS buffer (HBSS supplemented with 1% FBS and 0.1% sodium azide) to remove any unbound β-glucan, and subsequently treated with Fc block. Post Fc block step, cells were stained with the BfD IV Ab for 30 min at 4° C. and washed twice with cold FACS buffer. Cells were then incubated with FITC-conjugated F(ab′)2 goat anti-mouse IgM for 30 min at 4° C. and washed once with cold FACS buffer before fixing with 1% paraformaldehyde. Events were collected on a LSRII flow cytometer and analysis was performed using FlowJo software.
Table 2 summarizes the fold change of MFI values of BfD IV staining on neutrophils treated with each of the parent, or derivatized β-glucans, over that of PBS control-treated cells.

[3] = tested on: human peripheral blood mononuclear cells; assay: Oxidative burst (superoxide production by cytochrome c reduction) on immobilized glucan; conditions: human PBMCs, FIG. 5
Procedure: Dilutions of MMW and BT-1222 were prepared out-of-plate in water. Subsequently, 50 μL of each dilution were added to triplicate wells of Costar® Universal-Bind™ microtiter plates. For immobilizing the glucans on the plate, the plate was irradiated for 5 min in a UV cross-linker, and then incubated at 50° C. until completely dried. After checking for complete dryness of the plate, it was cross-linked again under UV for 5 minutes. The microtiter plates were then blocked with 0.25% bovine serum albumin (BSA) in DPBS for 30 min at room temperature. Each microtiter plate included positive control wells and negative control wells to which only water with no polysaccharide was added at this point.
The oxidative burst response was then determined by standard methods by measuring SO production through the reduction of cytochrome c. Peripheral blood mononuclear cells (PBMCs) were resuspended in HBSS/HEPES buffer with 0.25% BSA at a concentration of 4×10^6 cells/mL and maintained at 37° C. until added to the plate. A 100 μL aliquot of 200 μM bovine cytochrome c solution in HBSS/HEPES buffer previously incubated at 37° C. was added to each well. Approximately 4.0×10^5 cells, in a 100 μL volume, were subsequently added to each well of the microtiter plate. The negative assay control consisting of cells and cytochrome c was added in the uncoated negative control wells. As a positive assay control, just before reading the plate, phorbol myristate acetate (PMA) at 100 ng/mL was added as the stimulus to the cells in the uncoated positive control wells to achieve a final concentration of 50 ng/mL. The plate was maintained at 37° C., and optical density (OD) in each well was read at 550 nm every 15 min for 120 min using a spectrophotometer. For each concentration of polysaccharide, the OD change (ΔOD) was calculated from the time of minimum response (1 min) to the time of maximum response (120 mins). The rate of SO production (nmoles of SO/10^6 cells/120 mins) was calculated from the ΔOD value and the extinction coefficient of cytochrome c (21.1×103 M-1 cm-1). […]

| Substance | Approximate Fold Increase/Decrease in MFI over Parent Compound (iC3b) (human neutrophils [1]) [fold] | MFI(ic3b) compound/MFI(ic3b) PBS (human neutrophils [1]) | Approximate Fold Increase/Decrease in MFI over Parent Compound (BfD IV) (human neutrophils [2]) [fold] | MFI(BID IV) compound/MFI(BID IV) PBS (human neutrophils [2]) | oxidative burst compared with parent scleroglucan and parent MMW yeast β-glucan [3] |
| --- | --- | --- | --- | --- | --- |
| Benzyl Amine Scleroglucan Analog [BT-1272] | 2.4 | 3.9 | 1.7 | 3.2 |  |
| Propyl Amine Dextran Analog [BT-1266] | 0.9 | 1.0 | 1.1 | 1.1 |  |
| Benzyl Amine Reducing End MMW Yeast Glucan Analog [BT-1275] | 0.9 | 1.7 ± 0.1 | 0.6 | 2.4 ± 1.2 |  |
| Tyrosine MMW Yeast Glucan Analog [BT-1297] | 1.2 | 2.3 | 0.5 | 2.2 |  |
| Mannose Propyl Amine Laminarin Analog [BT-1281] | 0.8 | 1.1 | 1.1 | 1.2 |  |
| S-(+)-2-Phenyl Glycinol MMW Yeast Glucan Analog [BT-1300] | 0.8 | 1.6 | 0.6 | 2.5 |  |
| Propyl Amine MMW Yeast Glucan Analog [BT-1267] | 4.0 | 8.0 ± 3.9 | 5.6 | 23.6 ± 16.4 |  |
| Mannose Propyl Amine Scleroglucan Analog [BT-1290] | 0.7 | 1.1 | 0.7 | 1.4 |  |
| Propyl Amine LMW Yeast Glucan Analog [BT-1276] | 1.1 | 1.2 ± 0.1 | 1.0 | 1.5 ± 0.1 |  |
| De-Branched Scleroglucan Analog [BT-1322] |  |  |  |  | higher oxidative burst |
| Mannose Propyl Amine LMW Yeast Glucan Analog [BT-1278] | 0.9 | 1.0 | 0.9 | 1.3 |  |
| Benzyl Amine Laminarin Analog [BT-1234] | 3.9 | 5.1 | 70.0 | 77 |  |
| Benzyl Amine LMW Yeast Glucan Analog [BT-1273] | 2.2 | 2.4 | 11.3 | 17.0 |  |
| Galactose Propyl Amine Dextran Analog [BT-1286] | 0.9 | 1.0 | 1.0 | 1.0 |  |
| 3-Aminopropyl Imidazole MMW Yeast Glucan Analog [BT-1304] | 0.6 | 1.2 | 0.5 | 2.1 |  |
| Scleroglucan [Scleroglucan (parent), reference compound] |  | 1.6 |  | 1.9 |  |
| Galactose Propyl Amine LMW Yeast Glucan Analog [BT-1277] | 0.9 | 1.0 | 0.9 | 1.3 |  |
| Mannose Propyl Amine Dextran Analog [BT-1287] | 0.9 | 1.0 | 1.0 | 1.0 |  |
| Dextran [Dextran (control), reference compound] |  | 1.1 ± 0.2 |  | 1.0 |  |
| Tryptophan MMW Yeast Glucan Analog [BT-1220] | 5.1 | 10.1 | 4.8 | 20.3 |  |
| Maltose Propyl Amine MMW Yeast Glucan Analog [BT-1248] | 1.8 | 3.5 ± 0.4 | 1.1 | 4.7 ± 3.8 |  |
| Lactose Propyl Amine MMW Yeast Glucan Analog [BT-1244] | 1.5 | 3.0 ± 0.1 | 1.0 | 4.0 ± 1.9 |  |
| Laminarin [Laminarin (parent), reference compound] |  | 1.3 |  | 1.1 |  |
| Galactose Propyl Amine MMW Yeast Glucan Analog [BT-1245] | 2.3 | 4.5 ± 1.2 | 1.6 | 6.6 ± 3.78 |  |
| Mannose Propyl Amine MMW Yeast Glucan Analog [BT-1243] | 4.3 | 8.6 ± 0.3 | 4.7 | 19.7 ± 13.4 |  |
